Results on two compounds are retold here after patent US20210156865A1, “METHODS FOR ASSESSING EFFICACY OF MALT1 INHIBITORS USING AN NF-KB TRANSLOCATION ASSAY” (Janssen Pharmaceutica NV, priority 2019, published 2021).

Series [1] has as its system peripheral blood of NHL patients. The series is described as follows: Gene expression in whole blood of NHL patients (NanoString Pan-Cancer Immune Profiling). The format is cell-based, human. The settings on record: 200 μM 24 hours, anti-CD3 and anti-CD28 four hours. On the procedure: (§1) Peripheral blood was collected from three NHL and two CLL patients. […] Prior to stimulation and following stimulation, the treated blood was transferred into a PAXgene tube (Qiagen; Hilden, Germany) and RNA was extracted using the PAXgene RNA kit. Gene expression was measured using 100 ng of RNA extracted from the whole blood in the Pan-Cancer Immune Profiling kit (NanoString; Seattle, Wash.) according to the manufacturer's instructions.

The test system of series [2] is purified T-cells and PBMCs from NHL patients. Nature of the series: Gene expression in T-cells and PBMCs purified from NHL blood without stimulation. The format is cell-based, human. The settings on record: no stimulation, 24 hours. The method, then:
Peripheral blood was collected from five NHL patients, and the peripheral blood was allowed to stand overnight. Then, the peripheral blood was treated for 24 hours with a MALT inhibitor or DMSO control. PBMCs were purified from the unstimulated blood using a ficoll density gradient and T-cells were purified using CD3 Beads (Miltenyi) using the manufacturers protocol. Purified cells were lysed in RLTplus (Qiagen) and RNA was extracted from the purified cells using an AllPrep kit (Qiagen). Gene expression was measured using 100 ng of RNA in the Pan-Cancer Immune Profiling kit (NanoString) according to the manufacturer's instructions. Gene expression signatures were compared between the MALT inhibitor treated and DMSO treated samples.

Series [3] deals with NF-κB (p105/p50) nuclear translocation in CD19-positive B (CLL) cells. The series is described as follows: NF-κB nuclear translocation in B cells from CLL PBMCs, 30 min anti-IgM. Format: cell-based, human. The settings on record: 6 hours compound, anti-IgM 30 minutes. The method, then:
Alternatively, B cells can also be activated by beads coated with anti-IgM antibody. After the stimulation, PBMCs were fixed using CytoFix buffer and permeabilized using 0.1% Triton X-100 solution. Cells were then stained with anti-CD19 to label B (CLL) cells, Hoechst 33342 to label nuclei, and anti-p105/p50 to label NF-κB subunit. Samples were analyzed on ImageStreamX to evaluate NF-κB nuclear localization in the CD19-positive cells. […] Statistical significance was determined using Student's t-test in Microsoft Excel.

Series [4] concerns whole blood of NHL patients. Nature of the series: Gene expression signatures in NHL whole blood treated with lymphocyte-stimulating agents. The format is cell-based, human. The settings on record: PMA-stimulated samples, 100 μM. On the procedure: To obtain a robust gene signature of MALT1 inhibitor activity, whole blood of nine NHL patients which was stimulated with CD3/CD28, PMA/ionomycin, or PBS as a control was tested. Briefly, NHL donor blood was collected in 10 mL sodium heparin tubes and transported in refrigerated state (cold packs). […] Then, aliquots were stimulated with CD3 and CD28 antibodies (1 ug/ml each), PMA (20 ng/ml) and Ionomycin (1 μg/mL), or unstimulated (PBS) for four hours. Following stimulation, the treated blood was transferred into a PAXgene tube (Qiagen; Hilden, Germany) and RNA was extracted using the PAXgene RNA kit.
Gene expression was measured using 100 ng of RNA extracted from the whole blood in the Pan-Cancer Immune Profiling kit (NanoString; Seattle, Wash.) according to the manufacturer's instructions. Gene expression was normalized across samples using NanoString nSolver software. […] Briefly, log 2-scaled, normalized NanoString counts were fit to a linear model (which incorporated the patient of origin) and moderated t-statistics, along with the associated Benjamini-Hochberg (BH) corrected p-values, were computed by empirical Bayes moderation of the standard errors towards a common value.

Series [5] relates to purified T-cells and PBMCs from NHL patients. Nature of the series: IL2 expression in purified T-cells and PBMCs from NHL patients. The conditions noted are these: T-cells and PBMC of NHL blood; 24 hours; CD3 and CD28 six hours. Format: cell-based, human. The method, then:
The effect of a MALT inhibitor was analyzed utilizing gene expression signatures from purified T-cells and PBMCs from Non-Hodgkin's lymphoma patients. Peripheral blood was collected from five NHL patients, and the peripheral blood was allowed to stand overnight. Then, the peripheral blood was treated for 24 hours with a MALT inhibitor or DMSO control. The blood was then stimulated with monoclonal antibodies against CD3 and CD28 for six hours. Prior to stimulation and following stimulation, PBMC were purified from the treated blood using a ficoll density gradient and T-cells were purified using CD3 Beads (Miltenyi) using the manufacturers protocol. Purified cells were lysed in RLTplus (Qiagen) and RNA was extracted from the purified cells using an AllPrepkit (Qiagen). Gene expression was measured using 100 ng of RNA in the Pan-Cancer Immune Profiling kit (NanoString) according to the manufacturer's instructions.

The nature of series [6]: Oral bioavailability. The settings on record: in vivo.
In series [7] the test system is proteases, caspases, protein kinases, and G-protein-coupled receptors. The series is described as follows: Binding inhibition panel at single dose. Details: dose or concentration left out as unconfirmed.
In series [8] the test system is CD79b and CARD11-mutant ABC-DLBCL xenograft models. The series is described as follows: ABC-DLBCL xenograft models in vivo.
Series [9] relates to CD79b-mutant DLBCL and ibrutinib-resistant DLBCL cell lines. The series is described as follows: Growth of DLBCL cell lines in vitro. The conditions noted are these: ibrutinib-resistant with BTK C481S or CARD11 mutations. The format is cell-based.
Series [10] has as its system CD4+ and CD8+ T cells. The series is described as follows: CD69 expression on T cells from peripheral whole blood, imaging flow cytometry. The conditions noted are these: 200 μM overnight, anti-CD3 and anti-CD28 6 hours. Format: cell-based, human. The method, then: (§2) The solution was mixed by pipetting with a 1 mL pipette. The plates were incubated in a humidified incubator at 37° C. with 5% CO2 for an additional 6 hours.
The next day, blood was treated with anti-CD3 and anti-CD28 stimulatory antibodies for 6 hours as described in Example 1 or left untreated. After treatment with the stimulatory antibodies, the red blood cells were lysed using multi-species lysis buffer, and the white blood cells were stained with anti-CD4 and anti-CD8 antibodies to label T cells and an anti-CD69 antibody to measure early T cell activation. Frequency of CD69-positive T cells (CD4+ and CD8+) was measured by IFC.
(In general: A flow cytometer gives signals particle by particle.)

Series [11] relates to NF-kB nuclear localization in B (CLL) cells. Nature of the series: NF-κB nuclear translocation in CLL B cells, overnight incubation, 6 h anti-IgM. Format: cell-based, human. The conditions noted are these: CLL PBMC; overnight compound; anti-IgM 6 hours. On the procedure: Cells were then treated with anti-IgM or left untreated for 6 hours. After stimulation, PBMC were fixed using CytoFix buffer and permeabilized using 0.1% Triton X-100 solution. Cells were then stained with anti-CD19 to label B (CLL) cells, anti-CD4 and anti-CD8 to label T cells, Hoechst 33342 to label nuclei, and anti-p105/p50 to label NF-kB subunit. Samples were analyzed on ImageStreamX to evaluate NF-kB nuclear localization in B cells or T cells. […] Statistical significance was determined using Student's t-test in Microsoft Excel.

Series [12] has as its system NF-κB (p105/p50) nuclear translocation in CD4 and CD8 positive T cells. The series is described as follows: NF-kB nuclear translocation in T cells from NHL peripheral whole blood. Format: cell-based, human. The method, then:
as §2
The staining solution was prepared by diluting Hoechst 33342 (Thermo Scientific, cat. #62249) to 10 nM and the p50 antibody (Clone 2J10D7; Novus, cat. #NB100-56583C) at 50 μg/mL in FACS buffer. The cells were incubated in the staining solution for 30 minutes at room temperature in the dark. The cells were washed by centrifugation at 1350 rpm for 5 minutes at room temperature, the supernatants were discarded, and the pellets were reconstituted in FACS buffer. The wash step was repeated twice, and the cells were resuspended in PBS at a final concentration of 5-20×10^6 cell/mL in 25 μL of PBS.
The samples were imaged on an AMNIS® […]® X Mark II imaging flow cytometer (MilliporeSigma, Burlington, Mass.) immediately, using 60× magnification, and the data was analyzed in IDEAS software using an internalization module, e.g., to evaluate frequency of CD4+ and CD8+ T cells or CLL cells with nuclear enrichment of p50.
The next day, the mixture samples were treated with anti-CD3 and anti-CD28 stimulatory antibodies following a procedure as that described in Example 1. […] Samples were analyzed on ImageStreamX to evaluate NF-κB nuclear localization in the CD4 and the CD8 positive T cells.

Series [13] concerns peripheral blood of CLL patients. The series is described as follows: Gene expression in whole blood of CLL patients (NanoString Pan-Cancer Immune Profiling). The conditions noted are these: 200 μM 24 hours, anti-CD3 and anti-CD28 four hours. The format is cell-based, human. On the procedure:
as §1

Series [14] relates to NF-κB proteins (p50 and RelB) in CLL cells. The conditions noted are these: CLL cells treated in vitro; cited from earlier work.
The test system of series [15] is NF-κB target genes (CCND2, BCL2A, CCL3, CCL4, RGS1, and TNF) in CLL cells. The conditions noted are these: CLL cells treated in vitro; cited from earlier work.

Take `O=C(Nc1ccnc(C(F)(F)F)c1)c1cnn(-c2cccc3c(=O)[nH]ccc23)c1C(F)(F)F` [Compound A, 1-(1-oxo-1,2 dihydroisoquinolin-5-yl)-5 (trifluoromethyl)-N-[2 (trifluoromethyl)pyridin-4 yl]-1H-pyrazole-4 carboxamide]: in [1], the “stimulation induced upregulation of CXCL10” value is given as “repressed”. Also, in series [2] (purified PBMCs), the APOE expression entry is “repressed” and the PYCARD expression entry was “repressed”. Further, in series [2] (purified T-cells), the NF-κB2 expression result is given as “repressed” and the TNFSF10 expression entry is given as “repressed”. Besides, the “NF-κB nuclear translocation in activated B cells” value in series [3] is “inhibited”. In series [4], the genes significantly upregulated result was “no genes were significantly upregulated”. Further, in series [4] (genes ICOS, POU2F2, CCR4, CTLA4), the “gene expression at the specified cutoff levels” value is “downregulated”. The “stimulation induced upregulation of IL2” value in series [5] is on record as “repressed”. In [6], the oral bioavailability entry is “orally bioavailable”. Besides, in series [7], the “binding inhibition of proteases, caspases, protein kinases, and G-protein-coupled receptors” value is “did not show significant binding inhibition”. Besides, the “efficacy in xenograft models” value in series [8] is reported as “shown efficacy”. The “growth of DLBCL cell lines” value in [9] is given as “inhibit growth”. Further, the “surface expression of CD69 on T cells” value in series [10] (NHL blood) is reported as “significantly inhibited”. In addition, the “surface expression of CD69 on CD4+ and CD8+ T cells” value in series [10] (normal blood) is “not affected”. The “NF-κB nuclear translocation in B cells” value in [11] is listed as “inhibited”. In series [12] (CD3/CD28 stimulation, dosage dependent), the “NFκB nuclear translocation in T cells” value is reported as “completely blocked”. For the same compound, the IC50 in series [12] (Homo sapiens, CD8 positive, overnight, CD3/CD28 stimulation 6 h, read-out: IC50, NFκB nuclear translocation in T cells) was around 9.5 µM. For the same compound, the “stimulation induced upregulation of CXCL10” value in [13] is recorded as “repressed”.
As for `COCCOc1nc(-c2ccc(Cl)c(Cl)c2)n(-c2ccc(NC(=O)CCl)cc2)n1` [MI-2], the “nuclear translocation of NF-κB proteins” value in series [14] is recorded as “suppress”. Further, the “expression of six known NF-κB target genes” value in [15] is given as “significantly reduce”.

By IC50 is commonly meant the concentration at which inhibition is half-maximal.
